{
  "source": "patent US20080311103A1",
  "about": "“Anti-Inflammatory Peptides and Methods of Use Thereof” (YEDA RESEARCH AND DEVELOPMENT CO. LTD. at THE WEIZMANN …, priority 2004, published 2008)",
  "key": {"[1]": {"tested_on": "lymph node cells of oxazalone-sensitized mice transferred to syngeneic recipient mice", "test": "Adoptive transfer DTH assay", "assay_type": "in vivo, mouse", "settings": "lymph node cells incubated 20 hours with peptide (10 rig/ml), injected i.v. to recipient mice; ear swelling after 24 hours", "method": "Female inbred BALB/c mice (The Jackson Laboratory, Bar Harbor, Me.) were sensitized on the shaved abdominal skin with 2% oxazalone (100 μl) dissolved in acetone/olive oil [4:1 (vol/vol)]. Two donor mice were sensitized for one recipient mouse. On day 5, lymph nodes were removed and single-cell suspensions of lymph node cells were prepared. Lymph node cells were incubated (20 hours) with either peptide No. 3 or peptide No. 5 (10 rig/ml) in RPMI 1640 containing 10% FCS. After the incubation, the cells were washed, resuspended with PBS and injected intravenously (40 million cells per mouse) to syngeneic recipient mice. The mice were immediately challenged with 0.5% oxazalone in acetone/olive oil (10 μl given topically to each side of the ear) to elicit DTH reactions. The increment of ear swelling was measured after 24 hours."}, "[2]": {"tested_on": "Jurkat and THP-1 cells", "test": "TNFα secretion by PMA/PHA induced Jurkat and THP-1 cells", "assay_type": "cell-based, human", "settings": "peptide 1 μg/ml; 48 hours; ELISA", "method": "Jurkat cells human T cell lymphoma line) (2×10^6 cells/ml) cultured in RPMI-1640 supplemented with 10% FCS were activated with PMA (50 ng/ml) and phytohaemagglutinin PHA (4 µg/ml) for 6 hours at 37° C. (7.5% CO2-humidified atmosphere). Thereafter, the cells were washed, plated on 24-well plates (10^6 cells/well in 0.5 ml), and incubated (1 hour at 37° C., 7.5% CO2-humidified atmosphere) with the indicated concentrations of peptides 1-5. Following the incubation, THP-1 cells (human monocytic cell line derived from a patient with acute monocytic leukaemia; 1.25×10^5 cells/0.5 ml/well) were added to the wells. After 48 hours, the supernatants were collected and their TNF[…] content was determined by ELISA using anti TNF[…] mAb (Pharmingen; San Diego, Calif.) according to the manufacturer's instructions."}, "[3]": {"tested_on": "anti-CD3 antibody induced IFNγ secretion from T cells", "test": "IFNγ secretion by anti-CD3 activated T cells", "assay_type": "cell-based, human", "design": "concentration or dose not given beside the values", "settings": "24 hours; ELISA; FIG. 7B", "method": "Human T cells were purified and maintained in culture (RPMI containing 10% FCS, 1% Pyruvate, 1% glutamine, 1% antibiotics, 7.5% CO2, humidified atmosphere) for 15 hr before they were transferred to RPMI and activated (2 hr, 37° C.) with the indicated concentrations of the peptides. The cells were then plated (1.5×10^6 cells/0.5 ml/well) in 24 wells plates (non-tissue culture grade) precoated with anti-CD3 mAb in order to stimulate the cells to secrete cytokines. After 24 hours, the supernatants were collected and their cytokine content (TNFα and IFNγ) was determined by ELISA using anti-IFNγ and anti TNFα mAb (Pharmingen; San Diego, Calif.) according to the manufacturer's instructions."}, "[4]": {"tested_on": "NF-κB", "test": "Nuclear translocation of NF-κB in T cells (Western blot)", "assay_type": "cell-based", "settings": "peptide 100 ng/ml for 2 hours, then anti-CD3 mAb 24 hr; human T cells", "text": "To address the modulatory role of the wound fluid peptides on the signal transduction cascade leading to regulation of T-cell secretion of TNF-α(and IFN-γ, the nuclear translocation of NF-κB was detected by probing nuclear and cytoplasmic T-cell extracts using mAb specific for the p65 subunit of NF-κB. The nuclear protein Lamin B was used as continuatively expressed control protein for the quantification of protein amounts.\nHuman T cells. T cells were purified from the peripheral blood of healthy human donors (Blood Bank; Tel-Hashomer, Israel). The whole blood was incubated (20 min, 22° C.) with RosetteSep™ human T-cell enrichment cocktail (StemCell Technologies, Vancouver, BC, Canada). The remaining unsedimented cells were then loaded onto Lymphocyte Separation Medium (ICN Biomedicals; Belgium), isolated by density centrifugation, and washed with PBS. The purified cells (>95% CD3^+ T cells) so obtained were cultured in RPMI containing antibiotics and 10% heat-inactivated FCS. Western blot analysis of T-cell nuclear extracts. Purified T cells (5×10^6) were preincubated with the peptides (100 ng/ml) for 2 hours (37° C. in a 7% CO2, humidified atmosphere). The cells were then replated in 24-well plates pre-coated with anti-CD3 mAb for 24 hr (37° C. in a 7% CO2, humidified atmosphere). T cells were lysed in 10 mM HEPES, 1.5 mM MgCl2, 1 mM dithiothreitol (DTT), 1 mM PMSF, 0.5% Nonidet P-40. The lysates were incubated on ice for 10 min and centrifuged at 2000 rpm for 10 min at 4° C. The supernatants (cytoplasmic extracts) were transferred and the pellet (nuclei) was suspended in buffer containing 30 mM HEPES, 450 mM NaCl, 25% Glycerol, 0.5 mM EDTA, 6 mM DTT, 12 mM MgCl2 1 mM PMSF, 10 μg/ml leupeptin, 10 μg/ml pepstatin, 1% phosphatase inhibitor cocktail, and the suspension was incubated on ice for 30 min. The lysates were cleared by centrifugation (30 min, 14×10^3 rpm, 4° C.), and the resulting supernatants analyzed for protein content. […]"}},
  "data": [
    {"sequence": "WDNLEKETEGL [peptide No. 3, residues 96-106 of Apo A-I; identified in wound fluids, then synthesized]", "values": [
      {"measurement": "inhibition of adoptive transfer DTH response", "setting": "[1]", "value": 80, "unit": "%"},
      {"measurement": "inhibition of TNFα secretion by Jurkat and THP-1 cells compared to PMA/PHA alone", "setting": "[2]", "value": 50, "unit": "%"},
      {"measurement": "inhibition of anti-CD3 antibody induced IFNγ secretion from T cells", "setting": "[3]", "value": 65, "unit": "%"},
      {"measurement": "NF-κB translocation to the nucleus", "setting": "[4]", "value": "significant down-regulation"}
    ]}
  ]
}
